Active and inactive are the calls of the source. How the calls were made is not given here.
Tested on: bacterial growth, BacTiter-Glo ATP luminescence
Assay: bacterial growth inhibition, dose response, counter-screen, BacTiter-Glo luminescence, cherry-picked samples (AID 504843);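 further: growth measured after 8 h incubation at 30 °C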

In the case of `CO[C@H]1C=CO[C@@]2(C)Oc3c(C)c(O)c4c(O)c(c(C=NN5CCN(C)CC5)c(O)c4c3C2=O)NC(=O)C(C)=CC=C[C@H](C)[C@H](O)[C@@H](C)[C@@H](O)[C@@H](C)[C@H](OC(C)=O)[C@@H]1C`, the AC50 is reported as > 15 µM (inactive).
